From patent US12195476B2, “Synthesis method of furoimidazopyridine compound, crystal form of furoimidazopyridine compound, and crystal form of salt thereof” (HANGZHOU HIGHLIGHTLL PHARMACEUTICAL CO., LTD, priority 2019, dated 2025)

Legend:
JAK1 = JAK1 (Homo sapiens, UniProt P23458); details: result in words; cited from earlier work
[1] = test system: IL-6-induced STAT3 phosphorylation; details: result in words; cited from earlier work
TYK2 = target: T1, TYK2 (Homo sapiens, UniProt P29597); experiment: TYK2 biochemical test (33P-ATP filter binding kinase assay, Reaction Biology Corp); details: 2 hours at room temperature
T1 construct: purchased Reaction Biology Corp, Malvern, PA (contract test)
Procedure: An appropriate amount of a compound of formula I was weighed for TYK2 biochemical test.
The test was conducted by Reaction Biology Corp, Malvern, PA (Anastassiadis et al. Nat Biotechnol. 2011; 29(11):1039-45). The step is briefly described as follows.
Basic reaction buffer: 20 mM Hepes (pH 7.5), 10 mM MgCl2, 1 mM EGTA, 0.02% Brij35, 0.02 mg/ml BSA, 0.1 mM Na3VO4, 2 mM DTT and 1% DMSO. The required cofactor was added to each kinase reaction respectively.
• 1. Preparing the designated substrate in the newly prepared basic reaction buffer; • 2. Transferring the required cofactor to the above matrix solution; • 3. Transferring the designated kinase to the substrate solution and mixing well slightly; • 4. Transferring a compound of formula I in DMSO to the kinase reaction mixture with Acoustic technique (Echo550; nanoliter range), culturing for 20 minutes at room temperature; • 5. Introducing ^33P-ATP (specific activity: 10 μCi/μl) to the reaction mixture to trigger a reaction; • 6. Culturing at room temperature and conducting a kinase reaction for 2 hours; • 7. Plotting the reaction on P81 ion exchange paper; • 8. Testing the kinase activity with a filter binding assay.

[2] = test system: thrombopoietin-induced STAT3 phosphorylation; details: result in words; cited from earlier work

T1 sequence (P29597 whole entry): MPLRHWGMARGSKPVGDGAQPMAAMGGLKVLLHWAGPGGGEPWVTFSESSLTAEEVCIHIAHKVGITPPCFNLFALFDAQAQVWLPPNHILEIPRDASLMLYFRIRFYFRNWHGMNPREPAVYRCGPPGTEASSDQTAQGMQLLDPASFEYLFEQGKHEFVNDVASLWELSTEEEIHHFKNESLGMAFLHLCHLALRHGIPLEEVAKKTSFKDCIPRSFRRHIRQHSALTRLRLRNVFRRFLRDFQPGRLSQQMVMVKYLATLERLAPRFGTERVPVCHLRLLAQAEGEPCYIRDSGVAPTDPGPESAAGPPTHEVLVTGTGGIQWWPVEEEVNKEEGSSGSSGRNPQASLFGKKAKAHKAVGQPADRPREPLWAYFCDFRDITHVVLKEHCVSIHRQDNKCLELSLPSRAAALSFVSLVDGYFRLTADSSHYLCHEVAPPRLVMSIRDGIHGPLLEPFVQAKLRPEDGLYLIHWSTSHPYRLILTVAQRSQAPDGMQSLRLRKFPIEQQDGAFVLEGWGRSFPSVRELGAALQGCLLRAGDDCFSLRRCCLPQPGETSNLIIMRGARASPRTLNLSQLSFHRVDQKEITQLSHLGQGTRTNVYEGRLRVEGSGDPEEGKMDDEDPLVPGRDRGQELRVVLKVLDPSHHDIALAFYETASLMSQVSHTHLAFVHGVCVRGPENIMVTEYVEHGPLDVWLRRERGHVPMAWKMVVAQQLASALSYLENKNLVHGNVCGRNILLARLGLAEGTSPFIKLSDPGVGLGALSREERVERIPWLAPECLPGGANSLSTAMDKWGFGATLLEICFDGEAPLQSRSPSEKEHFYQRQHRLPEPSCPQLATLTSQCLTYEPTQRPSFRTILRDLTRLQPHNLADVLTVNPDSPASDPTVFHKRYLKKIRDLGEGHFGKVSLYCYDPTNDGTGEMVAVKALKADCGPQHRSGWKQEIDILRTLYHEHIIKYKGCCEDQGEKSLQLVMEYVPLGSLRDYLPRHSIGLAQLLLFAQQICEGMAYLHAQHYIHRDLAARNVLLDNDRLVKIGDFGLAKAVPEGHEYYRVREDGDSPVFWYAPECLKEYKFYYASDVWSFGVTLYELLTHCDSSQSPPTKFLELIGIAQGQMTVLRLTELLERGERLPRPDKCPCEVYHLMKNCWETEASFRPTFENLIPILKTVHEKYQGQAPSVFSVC
Chain of JAK1 (P23458 whole entry): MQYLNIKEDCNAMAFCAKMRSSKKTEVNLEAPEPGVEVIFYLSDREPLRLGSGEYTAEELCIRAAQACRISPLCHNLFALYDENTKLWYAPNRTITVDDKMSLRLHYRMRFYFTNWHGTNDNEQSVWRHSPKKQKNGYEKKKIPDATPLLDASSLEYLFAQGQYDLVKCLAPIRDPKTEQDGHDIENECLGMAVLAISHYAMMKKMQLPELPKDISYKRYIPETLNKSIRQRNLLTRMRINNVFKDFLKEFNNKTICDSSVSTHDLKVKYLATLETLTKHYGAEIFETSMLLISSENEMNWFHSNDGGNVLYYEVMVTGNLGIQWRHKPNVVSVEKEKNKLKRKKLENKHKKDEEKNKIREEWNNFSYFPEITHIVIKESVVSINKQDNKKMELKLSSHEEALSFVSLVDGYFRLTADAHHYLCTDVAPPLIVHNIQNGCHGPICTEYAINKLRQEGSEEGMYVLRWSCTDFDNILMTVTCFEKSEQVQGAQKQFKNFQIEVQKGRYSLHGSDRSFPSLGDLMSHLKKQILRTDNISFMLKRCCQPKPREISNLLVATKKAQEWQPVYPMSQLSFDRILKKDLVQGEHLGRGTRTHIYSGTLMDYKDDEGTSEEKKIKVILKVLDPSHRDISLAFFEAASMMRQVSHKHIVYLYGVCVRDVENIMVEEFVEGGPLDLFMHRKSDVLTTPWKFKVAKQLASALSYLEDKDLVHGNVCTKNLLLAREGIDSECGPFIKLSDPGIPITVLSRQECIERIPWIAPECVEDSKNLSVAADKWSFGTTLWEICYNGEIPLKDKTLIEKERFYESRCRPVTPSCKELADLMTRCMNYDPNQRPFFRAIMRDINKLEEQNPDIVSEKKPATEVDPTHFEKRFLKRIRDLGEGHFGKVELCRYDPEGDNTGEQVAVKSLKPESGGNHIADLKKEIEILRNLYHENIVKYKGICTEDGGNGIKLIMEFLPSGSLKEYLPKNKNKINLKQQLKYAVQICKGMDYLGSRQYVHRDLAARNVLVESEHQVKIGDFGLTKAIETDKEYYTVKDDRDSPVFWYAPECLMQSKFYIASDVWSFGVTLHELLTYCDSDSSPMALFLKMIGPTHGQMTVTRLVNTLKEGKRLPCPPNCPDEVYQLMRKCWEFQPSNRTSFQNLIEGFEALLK

For C[C@@H](O)c1nc2cnc3ccoc3c2n1[C@H]1CC[C@H](CC#N)OC1 [compound I, 2-[(2R,5S)-5-[2-[(R)-1-hydroxyethyl]furo[3,2-b]imidazo[4,5-d]pyridin-1-yl]tetrahydropyran-2-yl]acetonitrile], the JAK1 inhibition (JAK1) is listed as “potent and selective JAK1 inhibitor”, the “inhibition of IL-6-induced STAT3 phosphorylation” value [1] is listed as “demonstrated selective inhibition” and the IC50 (TYK2) is listed as under 10 nM. The “inhibition of thrombopoietin-induced STAT3 phosphorylation” value [2] was “did not show selective inhibition”.
